Positions of bridges follow the written chain, without caps; N, C: chain ends. Non-standard residues stand in square brackets, D forms with d. Residues, ends and D or L forms follow the SMILES beside them. *: point of attachment. X1 = CC[C@H](C)CCCCC(=O)*; Dab = NCC[C@H](N)C(=O)O
Columns and labels:
[1] = Population pharmacokinetic analysis of polymyxin B in Chinese patients (two-compartment model, Phoenix NLME); format: in vivo, human
Description: Patients who were ≥ 18 years of age, received intravenous polymyxin B (sulfate; polymyxin B injection, Shanghai First Biochemical Pharmaceutical Co., Ltd., China) for ≥ 72 hours, and were documented MDR Gram-negative bacterial infections were included. Patients with renal replacement therapy were excluded. Demographic characteristics (age, sex, and body weight), polymyxin B therapy, and laboratory data before polymyxin B TDM were collected from electronic medical records, including alanine aminotransferase (ALT), aspartate aminotransferase (AST), glutamyl transpeptidase (GGT), alkaline phosphatase (ALP), urea nitrogen, serum creatinine (Scr), serum uric acid, serum proteins, serum albumin, total bilirubin (TBIL), direct bilirubin (DBIL), and creatinine clearance (CrCL). CrCL was calculated using the Cockcroft-Gault equation with body weight ([Janmahasatian et al., 2005]).
According to the Chinese package insert, the maintenance dose of polymyxin B was 50 to 100 million units ([…]) twice daily. The loading dose was 100 to 150 million units in clinical practice. The recommended infusion time was one hour but could be lengthened as needed. Polymyxin B treatment including dose, infusion time, and duration of therapy depended on the medical teams.
(§1) Blood samples were obtained after 3 days of therapy. On day 4, one blood sample (2 ml, C0h) was collected immediately at pre-dose, and five to seven blood samples (mainly C0.5h, C1h, C1.5h, C2h, C4h, C6h, and C8h) were collected at pre-next dose into EDTA tubes for each patient. To calculate AUC0–12h, C0h was regarded as C12h for those who hid not obtained C0h. All samples were centrifuged at 3,500×g for 10 min. The supernatant was collected and stored at −80°C until analysis.
Plasma concentrations of polymyxin B were determined using liquid chromatography-tandem mass spectrometry (LC-MS/MS) in the hospital laboratory. The method was previously described by our group ([Wang et al., 2020]). […] The upper limit of quantification was extended to 20 µg/ml for polymyxin B1 and 5.0 µg/ml for polymyxin B2 after four-fold dilution. For precision and accuracy, the intra- and inter-day imprecision of polymyxin B1 and B2 was less than 13.93%, and the inaccuracy ranged from −10.87 to 11.13%. Since polymyxin B1 and B2 had similar structures, molecular weight, pharmacological activities, and pharmacokinetic characteristics, the plasma concentration of polymyxin B was summed to derive the total polymyxin B1 and B2 concentrations ([Tam et al., 2011]; [Manchandani et al., 2016a]).
Based on a previously published study ([Avedissian et al., 2019]), the PK parameters were determined by one- and two-compartmental models performed using Phoenix® NLME software (v7.0, Pharsight, Mountain View, CA, USA). Initial PK parameters were estimated by the Naive-pooled model. PK models were estimated by the first-order conditional
where Pi is the PK parameters of the i^th patient, θ is the population PK pharmacokinetic parameters, and ηi is a normally distributed random variable with a mean of 0 and a variance of ω^2. Intra-individual variability (residual error) is described using additive (Cobs = Cpred + ϵ), proportional [Cobs = Cpred × (1+ ϵ)] or mixed (additive + proportional) models, where Cobs and Cpred are the observed and predicted concentrations, and ϵ is an error variable with a mean of 0 and a variance of σ^2. Model assessment criteria included precision of parameter estimates (standard error), goodness-of-fit plots, and likelihood ratio test (−2LL). For the one-compartment model, basic PK parameters were the volume of central compartment distribution (V) and central compartment clearance (Cl). For the two-compartment model, there were two additional parameters as the volume of peripheral compartment distribution (V2) and inter-compartmental clearance (Q). […]

[2] = cited from earlier work
Excerpt: To date, few studies have been conducted on population PK of polymyxin B ([Kwa et al., 2008]; [Sandri et al., 2013]; [Kubin et al., 2018]; [Manchandani et al., 2018]; [Miglis et al., 2018]). To our best knowledge, this study included the largest samples and most covariates from acutely-ill patients, aimed at evaluating the population PK of polymyxin B and identifying potential factors influencing the PK variability. The result indicated a two-compartment model adequately described population PK of polymyxin B in Chinese patients. Although there were studies performed using the one-compartment ... || The impact of clinical variables on population PK models of polymyxin B was always inconsistent, especially the influence of body weight and CrCL on polymyxin B clearance. […] With a low correlation coefficient (Supplementary Figure 1), this study found CrCL was a statistical covariate of polymyxin B clearance (Equ. 6), which was in agr ...

[3] = Observed AUC0-12h at steady state (linear-up-log-down method); format: in vivo; conditions: human, 46 patients, steady state (day 4), intravenous, plasma, LC-MS/MS, mean ± spread
Description: as §1
Plasma concentrations of polymyxin B were determined using liquid chromatography-tandem mass spectrometry (LC-MS/MS) in the hospital laboratory. The method was previously described by our group ([Wang et al., 2020]). […] The upper limit of quantification was extended to 20 µg/ml for polymyxin B1 and 5.0 µg/ml for polymyxin B2 after four-fold dilution. For precision and accuracy, the intra- and inter-day imprecision of polymyxin B1 and B2 was less than 13.93%, and the inaccuracy ranged from −10.87 to 11.13%. […]
The AUC0-12h of polymyxin B was calculated by the linear-up-log-down method. […] The observed and predicted AUC0-12h were analyzed using the Pearson correlation coefficient (r). […] The determination coefficient (r^2) evaluated the regression level of the equation. […]

[4] = two-compartment population PK, 46 patients, intravenous, steady state

## CC[C@H](C)CCCCC(=O)N[C@@H](CCN)C(=O)N[C@H](C(=O)N[C@@H](CCN)C(=O)N[C@H]1CCNC(=O)[C@H]([C@@H](C)O)NC(=O)[C@H](CCN)NC(=O)[C@H](CCN)NC(=O)[C@H](CC(C)C)NC(=O)[C@@H](Cc2ccccc2)NC(=O)[C@H](CCN)NC1=O)[C@@H](C)O [polymyxin B, Polymyxin B] (X1-[Dab]T[Dab][Dab][Dab][dF]L[Dab][Dab]T; lactam 4-C)
[1]; 1,000 bootstrap samples
  dCldCrCL, bootstrap median: 0.357
  tvCl, bootstrap median: 1.771 L/h
  tvQ, bootstrap median: 14.427 L/h
  tvV2, bootstrap median: 12.073 L
  tvV, bootstrap median: 5.960 L
[1]; two-compartment population PK, 46 adult patients, 331 plasma samples, intravenous, steady state (day 4), LC-MS/MS, sum of polymyxin B1 and B2
  tvV, typical value of volume of central compartment distribution (V), final model estimate: 6.218 L
[1]; [4]
  tvQ, typical value of inter-compartmental clearance (Q, Cl2), final model estimate: 13.518 L/h
  tvV2, typical value of volume of peripheral compartment distribution (V2), final model estimate: 11.922 L
[2]; CrCL < 80 ml/min, P = 0.06 vs normal function group, ref Thamlikitkul et al. (2017)
  clearance value, renal insufficient group: 2.0 L/h
[2]; CrCL ≥ 80 ml/min, ref Thamlikitkul et al. (2017)
  clearance value, normal function group: 2.5 L/h
[2]; earlier population PK studies, ref not given
  polymyxin B CL reported previously (range): 1.87 to 2.5 L/h
[2]; ref Sandri et al. (2013)
  V estimate: 6.35 L
[3]
  AUC(0-t): 43600 ± 27700 ng·h/mL
